Assay results reported in patent publication US20230255869A1, “FATTY ACID DERIVATIVE, PRODUCTION PROCESS THEREFOR, HAIR COMPOSITION AND HAIR-TREATMENT METHOD” (CHEMYUNION LTDA., priority 2020, published 2023).

Columns and labels:
[1] = Shine evaluation of hair locks treated with conditioner (SAMBA Hair System, Reich-Robbins luster)
Protocol: The tests for evaluating the effectiveness in the shine of locks of hair were carried out with standardized fibers of CaucasianU, brown, straight hair, supplied by International Hair Importers— USA, model most used for these types of tests (Table 1).
The locks were washed with anti-residue shampoo and dried naturally (24±1h) before treatment.
The formulations were applied according to the protocol described below: For the locks in group G1 (Control), shampoo was applied in a standardized amount of SLES solution (8.1% active) on wet hair and gently massaged for 1 minute. Then rinsed for 1 minute.
For locks in group G2 (Placebo) and with the actives: G3 (Ricinoleamide), G4 (Cyclometicone), G5 (Phenyltrimethicone), G6 (Dimethicone), G7 (Aminopropyl phenyltrimethicone) and G8 (Propylene glycol dibenzoate) and G9 (Ricinoleate mono- and diesters), shampoo was applied in a standardized amount of placebo/standard shampoo to wet hair and gently massaged for 1 minute. Then rinsed for 1 minute. After rinsing the hair, the conditioner (3.0±0.2 g) was applied to the entire length of the hair, massaging and untangling the hair. Leaving the product to act for 2 minutes and it was rinsed for 1 minute. This protocol was repeated once, and then four more times, for all groups according to their specific treatment, described in Table 1.
The locks were kept in a controlled environment at 23±2° C. and 50±5% relative humidity (R. H.), for at least 24 hours before the tests were started. The entire test period was carried out under the same environmental conditions.
The evaluation of hair shine was performed on three locks per group, using the equipment SAMBA Hair System of the company Bossa Nova Technologies, USA.
The locks of hair were positioned on a cylindrical support that slides into the interior of the equipment, in order to carry out the measurements.
The equipment successively captures two parallel images of the locks of hair. Specular image and diffuse image. The specular image is formed only by the light reflected by the hair surfaces (first and second) of reflection. This image contains the brightness information. The diffused image (diffuse) is formed only by the scattered light coming from inside the hair.
The SAMBA system program calculates parameters associated with the reflection and refraction of light, the most used parameter is Luster, which evaluates the real state and quality of the brightness of the object under study. This parameter can be calculated simultaneously through different formulas, and for this study the analysis data obtained by the Reich-Robbins formula was used.
For the statistical evaluation of the tests, analysis of variance (ANOVA) was used. Tukey's test was applied when analysis of variance detected significant differences between the groups. For comparative tests between before and after the same sample, the t-Test (Student) was used.

[2] = Evaluation of the cuticular region of hair fibers by scanning electron microscopy (SEM); details: conditioner plus 1% active; bleached and dyed fibers; 1100x
Protocol: The tests to evaluate the effectiveness of the shine on locks of hair were carried out with standardized fibers of straight, dark brown hair, provided by International Hair Importers— USA.
The locks were washed with anti-residue shampoo and dried naturally (24±1h).
After the pre-treatment, the locks of hair from the groups G1, G2, G3 and G4 (average weight of 2 g per lock), were subjected to the process of chemical bleaching.
To carry out the process, a bleaching mixture was prepared with 15 g of bleaching powder and 30 g of hydrogen peroxide 30 volumes. This mixture was evenly applied to the locks of hair. After application, the locks were wrapped in aluminum foil and left to rest for 45 minutes. After the time of action of the bleaching mixture, the locks were washed and rinsed abundantly with running water (2 minutes) and received the application of a standard conditioner. After 2 minutes of rest, for the conditioner to work, the locks were rinsed again. The locks were dried with hot air from the dryer.
The whole process was repeated two more times, totaling three bleachings. […]
The evaluation of the surface of the hair fibers (cuticle region) was performed using a scanning electron microscope (SEM), model 6460 LV (JEOL). The study is based on capturing images (1100× magnification) of 10 capillary fibers randomly selected from the evaluated groups. […]

In the case of `CCCCCC[C@@H](O)C/C=C\CCCCCCCC(N)=O` [Ricinoleamide, ricinoleamide], the “difference of shine value greater than Amino pfenyltrimethicone group” value ([1]; conditioner with 1% active, one treatment, vs Amino pfenyltrimethicone (1%)) is reported as 93.4%, the “difference of shine value (after minus before one treatment) greater than Control group” value ([1]; conditioner with 1% active, one treatment, vs Control (SLES wash)) is reported as 78.4% and the “difference of shine value greater than Cyclomethicone group” value ([1]; conditioner with 1% active, one treatment, vs Cyclomethicone (1%)) is reported as 78.4%. For the same compound, the “difference of shine value greater than Dimethicone group” value ([1]; conditioner with 1% active, one treatment, vs Dimethicone (1%)) was 52.7%, the “difference of shine value greater than Phenyltrimethicone group” value ([1]; conditioner with 1% active, one treatment, vs Phenyltrimethicone (1%)) was 56.7% and the “difference of shine value greater than Placebo group” value ([1]; conditioner with 1% active, one treatment, vs Placebo conditioner) was 84%. For the same compound, the “difference of shine value greater than Propilene glycol dibenzoate group” value ([1]; conditioner with 1% active, one treatment, vs Propilene glycol dibenzoate (1%)) was 95.1%, the “difference of shine value greater than ricinoleate mono- and diesters group” value ([1]; conditioner with 1% active, one treatment, vs ricinoleate mono- and diesters (1%)) was 54.0% and the “efficiency in providing increased shine in the first application compared to other compounds” value ([1]; same concentrations, FIG. 1) was “greater efficiency”. For the same compound, the “integrity of the cuticular region (subjective SEM evaluation) vs Control and Placebo” value [2] was “greater preservation of the cuticular region”.
With phenyltrimethicone [reference compound] the “integrity of the cuticular region (subjective SEM evaluation) vs Control and Placebo” value [2] was “preservation of the cuticular region”.
